Literature values, collected in patent US7169982B2, “Starch” (Basf Plant Science GmbH, priority 2001, dated 2007).
Like-named read-outs stand apart in the source and are kept apart here.

Experiments:
[1] = test system: maize starch synthase SSIIb-2 (SEQ ID NO:7) mutant D21E; conditions: amylopectin as primer, 5 mg/ml; read-out: Km (ADPGlc)
[2] = test system: maize starch synthase SSIIa (SEQ ID NO:8) mutant K193R; conditions: for Km: read-out: Km for ADPG
[3] = test system: maize starch synthase SSIIb-2 (SEQ ID NO:7) mutant E391D; conditions: read-out: Km (ADPGlc)
[4] = test system: maize starch synthase SSIIa (SEQ ID NO:8) mutant K193E; conditions: for Km: read-out: Km for ADPG
[5] = test system: maize starch synthase SSIIb-2 (SEQ ID NO:7) mutant D21N; conditions: read-out: Km (ADPGlc)
[6] = test system: maize starch synthase SSIIb-2 (SEQ ID NO:7) mutant D139E; conditions: read-out: Km (ADPGlc)
[7] = test system: maize starch synthase SSIIa, wild-type, SEQ ID NO:8; conditions: for Km: read-out: Km for ADPG
[8] = test system: maize starch synthase SSIIa (SEQ ID NO:8) mutant K193Q; conditions: for Km: read-out: Km for ADPG
[9] = test system: maize starch synthase SSIIb-2 (N-terminally truncated form of mSSIIb produced in E. coli), non-mutant, SEQ ID NO:7; conditions: read-out: Km (ADPGlc)
[10] = test system: maize starch synthase SSIIa (SEQ ID NO:8) mutant K497Q; conditions: for Km: read-out: Km for ADPG

In the case of Nc1ncnc2c1ncn2[C@@H]1O[C@H](COP(=O)(O)OP(=O)(O)O[C@H]2O[C@H](CO)[C@@H](O)[C@H](O)[C@H]2O)[C@@H](O)[C@H]1O [ADPGlc, ADP-glucose], the Km [1] is listed as 130 ± 30 µM, the Vmax ([2]; amylopectin as primer) is listed as 18.2 ± 0.91 μmol/min/mg protein and the Km ([2]; amylopectin as primer) is listed as 150 ± 10 µM. The Vmax ([2]; glycogen as primer) was 42.27 ± 3.01 μmol/min/mg protein, the Km ([2]; glycogen as primer) was 150 ± 20 µM and the Km ([3]; amylopectin as primer, 5 mg/ml) was 1370 ± 140 µM. For the same compound, the Km ([3]; glycogen as primer, 20 mg/ml) was 1180 ± 140 µM, the Vmax ([4]; amylopectin as primer) was 10.53 ± 0.5 μmol/min/mg protein and the Km ([4]; amylopectin as primer) was 220 ± 10 µM. The Vmax ([4]; glycogen as primer) was 25.45 ± 0.08 μmol/min/mg protein, the Km ([4]; glycogen as primer) was 170 ± 20 µM and the Km ([5]; amylopectin as primer, 5 mg/ml) was 1580 ± 110 µM. For the same compound, the Km ([5]; glycogen as primer, 20 mg/ml) was 1480 ± 30 µM, the Km ([6]; amylopectin as primer, 5 mg/ml) was 90 ± 30 µM and the Km ([6]; glycogen as primer, 20 mg/ml) was 70 ± 20 µM. For the same compound, the Vmax ([7]; amylopectin as primer) was 49.9 ± 4.06 μmol/min/mg protein, the Km ([7]; amylopectin as primer) was 110 ± 10 µM and the Vmax ([7]; glycogen as primer) was 34.47 ± 1.70 μmol/min/mg protein. For the same compound, the Km ([7]; glycogen as primer) was 120 ± 10 µM, the Vmax ([8]; amylopectin as primer) was 17.4 ± 1.58 μmol/min/mg protein and the Km ([8]; amylopectin as primer) was 130 ± 10 µM. The Vmax ([8]; glycogen as primer) was 6.20 ± 0.01 μmol/min/mg protein, the Km ([8]; glycogen as primer) was 100 ± 10 µM and the Km ([9]; amylopectin as primer, 5 mg/ml) was 160 ± 30 µM. For the same compound, the Km ([9]; glycogen as primer, 20 mg/ml) was 130 ± 20 µM, the Vmax ([10]; amylopectin as primer) was 13.5 ± 0.21 μmol/min/mg protein and the Km ([10]; amylopectin as primer) was 5620 ± 230 µM. For the same compound, the Vmax ([10]; glycogen as primer) was 23.8 ± 2.5 μmol/min/mg protein and the Km ([10]; glycogen as primer) was 6910 ± 330 µM.
